System: tetO-CMV promoter
Experiment: Luciferase activity in electroporated HeLa-16 cells treated with desferrioxamine, cobaltous chloride or 2-2′-dipyridyl
Format: cell-based
Conditions: HeLa-16 cells electroporated with pTHV, 24 hours
Method: HeLa cells were maintained in Dulbecco Modified Medium with Glutamax (Gibco) supplemented with 10% fetal calf serum. For transfection, 5×10e6 HeLa cells were electroporated with a Gene Pulser (Biorad) at 200 V, 960 microfarads in the presence of 25 μg of each plasmid, NaCl 3M in 50 microliters. For control experiments a Bluescript pBSK+ was electroporated instead of the plasmid of interest. Each suspension of cells was then split in aliquots and incubated either in medium alone or in medium supplemented with doxycycline (1 μg/ml), cobaltous chloride (100 μM), desferrioxamine (Def) (130 μM), 2-2′-dipyridyl (DP) (100 μM) or the MG132 proteasome inhibiteur (2.5 μM). For hypoxic conditions cells were placed at 37° C. in a closed chamber with 1% oxygen, 5% CO2 and 94% N2 (Air Liquide).
Electroporated cells were trypsinized and the pellet was lysed in 200 μl LB buffer (Tris Phosphate pH 7.8 25 mM, MgCl2 8 mM, dithiothreitol 1 mM, Triton×100 1%, glycerol 15%). The lysat was then centrifugated at 4° C., the supernatant was collected and luciferase activity was measured using a luminometer (Lumat LB 9501, Berthold). Results were expressed as relative luciferase activity per mg of cell lysates protein. Protein concentration determination was performed with the BCA Protein Assay Kit (Pierce).
The reporter plasmid encoded for a luciferase gene inserted downstream of a minimal CMV promoter that contains seven binding sites for the E.Coli tetracycline repressor (tetO-CMV)(20). HeLa cells were stably transfected with this vector and one clone named HeLa-16 was used in all transient transfection assays.
HeLa-16 cells were electroporated with each pTHV or pTV. After electroporation cells were split into aliquots, and exposed in parallel to 21% O2, 1% O2, 2,2′-dipyridyl (DP), desferrioxamine (Def), cobaltous chloride (Co) or MG132. Luciferase activities were measured 24 hours later and normalised as RLU (relative light unit) per mg of proteins.

| Compound | effectiveness of the chemical in inducing transactivation by pTHV |
| --- | --- |
| CC(=O)N(O)CCCCCNC(=O)CCC(=O)N(O)CCCCCNC(=O)CCC(=O)N(O)CCCCCN [desferrioxamine] | lower than with DP |
| c1ccc(-c2ccccn2)nc1 [DP, 2-2′-dipyridyl] | most effective |
| [Cl-].[Cl-].[Co+2] [cobalt, cobaltous chloride] | lower than with DP |
